Holding throughout (experiment): inhibition of tumour cell growth, NCI panel, 48 h
Assay [1] concerns HCC-2998 colon.
Assay [2] has as its system CCRF-CEM leukemia.
The subject of assay [3] is RXF 393 renal.
Assay [4] concerns HL-60(TB) leukemia.
The test system of assay [5] is HCT-116 colon.
Assay [6] has as its system EKVX NSCLC.
The test system of assay [7] is TK-10 renal.
Assay [8] relates to HOP-62 NSCLC.
In assay [9] the test system is OVCAR-5 ovarian.

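Method: 48-hour compound exposure of cells in 96-well plates, five concentrations, linear interpolation of endpoints. Here, GI50 denotes the concentration required for 50% inhibition of growth. Definition used: TGI = concentration required for complete inhibition of growth.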 Where only a bound is given, the exact number is not on record here.

Take `COc1cc([C@@H]2c3cc4c(cc3[C@@H](NC(=O)c3ccc(OC(C)=O)cc3)C3COC(=O)[C@@H]32)OCO4)cc(OC)c1O` (some centres undefined): the TGI in assay [1] was 14.7 µM; in assay [2], > 100 µM; in assay [3] it was 36.3 µM; in assay [4], 0.688 µM; in assay [5] it was 15.3 µM; in [6] it was 21.2 µM. In addition, the figures for the TGI in assay [7], in [8] and in assay [9] were 30.8 µM, 3.12 µM and 22.4 µM, respectively.
On to `Cc1nc(-n2nc(-c3ccccc3)cc2-c2ccccc2)sc1C(/C=C/c1ccc([N+](=O)[O-])cc1)=N/NC(N)=S`, for which the TGI in [1] was 74 µM; in [2], 90.2 µM; in assay [3] it was > 100 µM; in assay [4], 25.6 µM; in assay [5] it was 43.4 µM; in assay [6], > 100 µM. In addition, the TGI was > 100 µM in assay [7], 65.7 µM in assay [8] and > 100 µM in [9].
Regarding `Cc1cc(C)c(C(=O)/C(=C/c2ccccc2)c2ccccc2)c(C)c1`, the TGI in assay [2] is > 100 µM; in [3], > 100 µM; in [4], 90.6 µM; in assay [5], > 100 µM; in assay [6] it was > 100 µM; in [7] it was > 100 µM. For the same molecule, in assay [8], the TGI was > 100 µM.
On to `Cc1ccnc(NC(c2ccccc2)c2ccc3cccnc3c2O)c1` (centres undefined), for which the GI50 in [1] was 7.12 µM; in assay [2] it was 2.43 µM; in [3] it was 7.93 µM; in assay [4] it was 1.7 µM; in assay [5] it was 2.94 µM; in assay [6], 2.64 µM. Also, the GI50 in assay [8] is 4.41 µM; in [9], 8.86 µM. In addition, the TGI in [1] was > 100 µM; in assay [2] it was > 100 µM; in assay [3], > 100 µM; in assay [4] it was 5.4 µM; in assay [5] it was 14.5 µM; in assay [6] it was 15.8 µM. Besides, the TGI in assay [8] was 96.2 µM; in assay [9] it was > 100 µM.
With `CCCCC1N=CNc2c1ccc1c2[nH]c2ccccc21` (centres undefined), the TGI was determined as 3.01 µM in assay [1]; 5.89 µM in [2]; 2.16 µM in assay [3]; 3.68 µM in assay [4]; 3.32 µM in assay [5]; 21.6 µM in assay [6]. Also, the figures for the TGI in assay [7], in assay [8] and in assay [9] were 10.9 µM, 9.97 µM and 9.07 µM, respectively.
Turning to `c1cnc2nc3n(c2c1)CSC3`, the TGI in assay [1], in [2], in assay [3], in assay [4], in assay [6] and in assay [7] was > 100 µM throughout. Besides, the TGI in assay [8] and in [9] was > 100 µM throughout.
On to `COc1cc(CC2C(=O)OCC2[C@@H](OC(C)=O)c2ccc3c(c2)OCO3)c(Br)c(OC)c1OC` (some centres undefined), for which the TGI in assay [1], in assay [2], in assay [3], in assay [4], in assay [5] and in [6] was > 100 µM throughout. For the same molecule, the TGI in assay [7] and in [8] was > 100 µM throughout.
As to `COC(=O)Cc1nn2c(nc1=O)sc1ccc3ccccc3c12`, the TGI was > 100 µM in assay [1]; > 100 µM in [2]; 96 µM in assay [3]; > 100 µM in assay [4]; > 100 µM in [5]; > 100 µM in assay [6]. Besides, the TGI in assay [8] and in assay [9] was > 100 µM each time.
With `CN(CC1NCCCC1O)C12CC3CC(CC(C3)C1)C2` (centres undefined), the TGI in assay [1], in assay [2], in [4], in assay [6], in assay [7] and in assay [8] was > 100 µM throughout. In assay [9], the TGI was > 100 µM.
For the molecule `COc1cc(CC(=O)c2cc3c(cc2-c2ccccc2)OCO3)cc(OC)c1OC`, the TGI in assay [1], in assay [2], in assay [3], in assay [4], in assay [5] and in assay [6] was > 100 µM in each case. Also, the TGI in [7], in assay [8] and in assay [9] was > 100 µM in each case.
As for `O=C1C(Cl)C(c2ccc([N+](=O)[O-])cc2)N1n1cnc2ccccc2c1=O` (centres undefined), the TGI in assay [1] is > 100 µM; in [2] it was > 100 µM; in [3], 72.1 µM; in assay [5], > 100 µM; in assay [6] it was 85.6 µM; in [7] it was 83.2 µM. Further, the TGI in assay [8] and in assay [9] was > 100 µM each time.
With `COC(=O)c1cc2c(nc1C)-c1ccccc1OS2(=O)=O`, the TGI in assay [1], in assay [2], in assay [3], in assay [4], in assay [5] and in [6] was > 100 µM each time. Besides, the TGI is > 100 µM in assay [7], 67.8 µM in assay [8] and > 100 µM in assay [9].
Consider `CN(CCCCN)c1ccc2c(=O)[nH][nH]c(=O)c2c1`, for which the TGI in assay [1], in [2], in [3], in [4], in assay [5] and in assay [6] was > 100 µM in each case. For the same molecule, the TGI in [7], in [8] and in [9] was > 100 µM in each case.
On to `Cc1ccc(S(=O)(=O)OC2CSSCC2OS(=O)(=O)c2ccc(C)cc2)cc1` (centres undefined), for which the TGI in [1] was found to be 35.5 µM; in [2], 28.3 µM; in assay [3], 37.7 µM; in assay [4], 22 µM; in [5], 26 µM; in [6], 50 µM. The TGI was 28.9 µM in assay [7], 43.2 µM in assay [8] and 38 µM in assay [9].
In the case of `CCCCc1c2c(nc3c1CCCC3=O)CCCC2`, the TGI in assay [1], in [2], in assay [4], in assay [5], in [6] and in assay [8] was > 100 µM in each case.
In the case of `O=c1sc(-c2nc3ccccc3[nH]2)c(/N=C/c2ccccc2)n1-c1ccccc1`, the TGI in assay [1], in assay [2], in [3], in [4], in assay [6] and in assay [7] was > 100 µM throughout. For the same molecule, the TGI in assay [8] was 73.7 µM; in assay [9], > 100 µM.
For `COc1cc(=O)oc(/C=C/CO)c1C`, the TGI in assay [1], in assay [2], in assay [3], in [4], in [5] and in [6] was > 100 µM in each case. Further, the TGI in assay [7], in [8] and in [9] was > 100 µM throughout.
Consider `Cc1cc(N(CCC#N)CCC#N)ccc1CC1N=C(c2ccccc2)OC1=O` (centres undefined), for which the TGI in [1], in assay [2], in assay [4], in assay [5], in [6] and in assay [7] was > 100 µM in each case. For the same molecule, the TGI in assay [8] and in assay [9] was > 100 µM each time.
Turning to `COc1ccc(NC(=O)C2=CC(=O)c3ccc(O)cc3C2=O)c(OC)c1`, the TGI in assay [1], in assay [2], in assay [3], in [4], in assay [5] and in assay [6] was > 100 µM each time. Also, the TGI in [7], in [8] and in assay [9] was > 100 µM throughout.
Regarding `O=C1NC(Cc2ccccc2)C(=O)N2CCCC12` (centres undefined), the TGI in assay [1], in assay [2], in assay [3], in assay [4], in [5] and in [6] was > 100 µM throughout. Besides, the TGI in assay [7], in assay [8] and in [9] was > 100 µM each time.
As to `Cc1cc(C)c(C2=NO[C@@H]3C(=O)N(c4ccc(Cc5ccc(N6C(=O)[C@H]7C(c8c(C)cc(C)cc8C)=NO[C@H]7C6=O)cc5)cc4)C(=O)[C@H]23)c(C)c1`, the TGI in assay [1], in [2], in assay [3], in [4], in [6] and in [7] was > 100 µM throughout. In addition, the TGI in assay [8] and in assay [9] was > 100 µM each time.
`c1ccc(N2N=NC3C4CC(C5c6ccccc6C45)C32)cc1` (centres undefined): the TGI is > 100 µM in [2]; 44.1 µM in assay [3]; 85.5 µM in [4]; 82.7 µM in [5]; > 100 µM in assay [6]; > 100 µM in [7]. For the same molecule, the TGI in assay [8] and in [9] was > 100 µM in each case.
For `C[C@H]1CCC2C(CN3CCCCC3)C(=O)OC2[C@]2(C)C(=O)CC(N3CCCCC3)C12O` (some centres undefined), the TGI is 18.2 µM in [1]; 10.1 µM in [2]; 4.31 µM in [3]; 10.6 µM in assay [4]; 12 µM in assay [5]; 16.1 µM in [6]. For the same molecule, the results for the TGI in assay [7] and in [9] were 34.3 µM and 22.6 µM, respectively.
On to `CCOC(=O)CP(=S)(S)c1ccccc1` (centres undefined), for which the TGI in assay [2], in assay [3], in [4], in assay [6], in [7] and in [8] was > 100 µM in each case. For the same molecule, the TGI in assay [9] was > 100 µM.
For `Cn1c2c(c3ccccc31)CCN(CCCN1CCN(c3ccccc3)CC1)C2=O`, the TGI in assay [2] is 65.7 µM; in assay [3], 32.6 µM; in assay [4] it was 33.6 µM; in assay [5], 29.8 µM; in assay [6] it was 77.6 µM; in assay [7], 35.4 µM.
In the case of `C=CCn1c(=O)c(C(=O)NC(=O)OCC)cn(C2CCCCC2)c1=O`, the TGI in assay [1], in assay [2], in assay [4], in [5], in assay [6] and in assay [7] was > 100 µM in each case. Besides, the TGI in assay [8] and in assay [9] was > 100 µM in each case.
For `C1=CC(=NN=P(c2ccccc2)(c2ccccc2)c2ccccc2)C=C1`, the TGI in [1], in assay [2], in assay [3], in assay [4], in [6] and in [7] was > 100 µM throughout. The TGI in assay [8] and in assay [9] was > 100 µM in each case.
As to `O=C(O)CCCc1cc2c(s1)-c1cccc3cccc-2c13`, the TGI was 50.2 µM in assay [1]; 57.5 µM in [4]; > 100 µM in [5]; > 100 µM in [7]; > 100 µM in assay [8]; > 100 µM in assay [9].
For the molecule `C=CNC(=S)n1nc(-c2ccccc2NC(=O)C(F)(F)F)c(=O)n(C(=S)NC=C)c1=S`, the TGI was > 100 µM in assay [1]; > 100 µM in assay [2]; > 100 µM in [3]; > 100 µM in assay [5]; 69.3 µM in assay [6]; > 100 µM in assay [7]. Moreover, the TGI in [8] was 86 µM; in [9], > 100 µM.
With `CC(C)OC(=O)c1cccnc1/C=N/O`, the TGI in assay [1], in [2], in assay [4], in assay [5], in assay [6] and in [7] was > 100 µM each time. Besides, the TGI in assay [8] and in assay [9] was > 100 µM throughout.
For `C1C[S][Ge]2([S]CCS1)[S]CCSCC[S]2`, the GI50 in [1], in assay [2], in [4], in [5] and in [8] was > 100 µM throughout. Further, the TGI in [1], in assay [2], in assay [4], in assay [5] and in assay [8] was > 100 µM throughout.

For the origin of these results see PubChem BioAssay (NCI).
